From ChEMBL document CHEMBL1152190, “Synthesis of spiro-1,2-dioxolanes and their activity against Plasmodium falciparum” (Bioorg Med Chem Lett, 2008)
Active and inactive are the calls of the source. The calls are words filed in the database; no cut-off is given here.

Key:
Plasmodium falciparum [1] = test: Antimalarial activity as reduced parasitaemia after 72 hrs against chloroquine-resistant Plasmodium falciparum Dd2 in human erythrocytes by DAPI stain; format: functional, organism-based; conditions: Dd2, 72 h
Heme = test: Inhibition of heme crystallization by parasite-independent assay; format: functional
Plasmodium falciparum [2] = test: Antimalarial activity as reduced parasitaemia after 72 hrs against chloroquine-sensitive Plasmodium falciparum 3D7 in human erythrocytes by DAPI stain; format: functional, organism-based; conditions: 3D7, 72 h
Plasmodium falciparum [3] = test: Antimalarial activity as reduced parasitaemia after 72 hrs against chloroquine-resistant Plasmodium falciparum FCB in human erythrocytes by DAPI stain; format: functional, organism-based
Plasmodium falciparum [4] = test: Antimalarial activity as reduced parasitaemia after 72 hrs against chloroquine-resistant Plasmodium falciparum 7G8 in human erythrocytes by DAPI stain; format: functional, organism-based; conditions: 7G8, 72 h
Plasmodium falciparum [5] = test: Antimalarial activity as reduced parasitaemia after 72 hrs against chloroquine-resistant Plasmodium falciparum 106/1 in human erythrocytes by DAPI stain; format: functional, organism-based; conditions: 106/1, 72 h
Plasmodium falciparum [6] = test: Antimalarial activity against Plasmodium falciparum NF54; format: functional, organism-based
Plasmodium falciparum [7] = test: Antimalarial activity against Plasmodium falciparum K1; format: functional, organism-based

Structure (SMILES) | EC50 (Plasmodium falciparum [1]) [nM] | Activity (Heme) | EC50 (Plasmodium falciparum [2]) [nM] | EC50 (Plasmodium falciparum [3]) [nM] | EC50 (Plasmodium falciparum [4]) [nM] | EC50 (Plasmodium falciparum [5]) [nM] | EC50 (Plasmodium falciparum [6]) [nM] | EC50 (Plasmodium falciparum [7]) [nM]
CC1(CC(=O)NCc2ccc(-c3ccccc3)cc2)CC2(CCCCC2)OO1 (stereo unspecified) | 77 | inactive | 100 | – | – | – | – | –
CC(C)(N)CNC(=O)CC1(C)CC2(CCCCC2)OO1 (stereo unspecified) | 108 | inactive | 61 | – | – | – | – | –
CC1CCC2(CC1)CC(C)(CCOCc1ccccc1)OO2 (mixture of isomers) | 59 | inactive | 545 | – | – | – | – | –
CC(=O)OCCC1(C)CC2(CCCC(C)C2)OO1 (mixture of isomers) | 114 | inactive | 109 | – | – | – | – | –
CC(C)(CO)CC1(C)C[C@]2(CC[C@H](C)CC2)OO1 (stereo partly specified) | 897 | – | 332 | – | – | – | – | –
CC1CCCC2(C1)CC(C)(CCOCc1ccccc1)OO2 (mixture of isomers) | 151 | inactive | 92 | – | – | – | – | –
CC1CCCC2(C1)CC(C)(CC(=O)O)OO2 (mixture of isomers) | > 1000 | – | > 1000 | – | – | – | – | –
CCN(CC)CCCC(C)Nc1ccnc2cc(Cl)ccc12 (stereo unspecified) [CHLOROQUINE] | 66 | – | 7 | 52 | 46 | 14 | – | –
C1CCC2(CC1)OOC1(O2)C2CC3CC(C2)CC1C3 (stereo unspecified) | – | – | – | – | – | – | 5.3 | 3.67
NCCNc1ccnc2cc(Cl)ccc12 | 155 | inactive | 57 | – | – | – | – | –
C[C@@H]1CC[C@H]2[C@@H](C)C(=O)O[C@@H]3O[C@@]4(C)CC[C@@H]1[C@]32OO4 [ARTEMISININ] | 4 | – | 4 | 8 | 48 | 13 | – | –
C1CCC2(CC1)CC1(OO2)C2CC3CC(C2)CC1C3 (stereo unspecified) | – | inactive | – | – | – | – | > 2000 | > 2000
CC1(CCOCc2ccccc2)CC2(CCC(C(C)(C)C)CC2)OO1 (mixture of isomers) | 74 | inactive | 86 | – | – | – | – | –
CC1(CC(=O)NCCNc2ccnc3cc(Cl)ccc23)CC2(CCCCC2)OO1 (stereo unspecified) | 6 | inactive | 5 | 16 | 8 | 22 | – | –
CC1(CC(=O)NCC2C3CC4CC(C3)CC2C4)CC2(CCCCC2)OO1 (stereo unspecified) | 57 | inactive | 81 | – | – | – | – | –
CCNC(=O)CC1(C)CC2(CCCCC2)OO1 (stereo unspecified) | 99 | – | 485 | 356 | 83 | 142 | – | –
CC1CCCC2(C1)CC(C)(CCO)OO2 (mixture of isomers) | 149 | inactive | 241 | – | – | – | – | –
COCCC1(C)CC2(CCCC(C)C2)OO1 (mixture of isomers) | 62 | inactive | 69 | – | – | – | – | –
O=C(CN1CCC2(CCCCC2)C1)NCCNc1ccnc2cc(Cl)ccc12 | 78 | inactive | 69 | 80 | 91 | 53 | – | –
C1CCC2(CC1)CC1(CCCCC1)OO2 | – | – | – | – | – | – | 523 | 195
CC1(CCOCc2ccccc2)CC2(CCCCC2)OO1 (stereo unspecified) | 146 | inactive | 141 | – | – | – | – | –
